The results in this text go back to ChEMBL document CHEMBL1146403, “Three new cryptophycins from Nostoc sp. GSV 224” (J Nat Prod, 1997).

Common to all, as to type: functional, cell-based
One experiment concerns SK-OV-3. Kind of experiment: Cytotoxicity against human SKOV3 cells.
In a further experiment the test system is LoVo. In words: Cytotoxicity against human LoVo cells.
Another experiment relates to KB. In words: Cytotoxicity against human KB cells.

Each structure is given as a SMILES string. pIC50: −log10 of the molar value.

As usually defined, the pIC50 is the negative decadic logarithm of the IC50, by convention in mol/L. A higher pIC50 goes with a small IC50. Take `COc1ccc(C[C@H]2NC(=O)/C=C/C[C@@H]([C@H](C)/C=C/c3ccccc3)OC(=O)[C@H](CC(C)C)OC(=O)[C@H](C)CNC2=O)cc1Cl` [CRYPTOPHYCIN 3]: the negative-log IC50 (pIC50) in the experiment on SK-OV-3, in the experiment with LoVo and in the experiment on KB was 8.72 each time.

For the compound `COc1ccc(C[C@@H]2NC(=O)/C=C/C[C@@H]([C@H](C)/C=C/c3ccccc3)OC(=O)[C@H](CC(C)C)OC(=O)[C@H](C)CNC2=O)cc1Cl` [CRYPTOPHYCIN 46], the pIC50 in the experiment with SK-OV-3, in the experiment on LoVo and in the experiment with KB was 6.12 in each case.

With `COc1c(Cl)cc(C[C@H]2NC(=O)/C=C/C[C@@H]([C@H](C)/C=C/c3ccccc3)OC(=O)[C@H](CC(C)C)OC(=O)[C@H](C)CNC2=O)cc1Cl` [CRYPTOPHYCIN 175], the pIC50 in the experiment with SK-OV-3, in the experiment on LoVo and with KB was 7.00 each time.

In the case of `CC(C)C[C@@H]1OC(=O)CCNC(=O)[C@@H](Cc2ccc(O)c(Cl)c2)NC(=O)/C=C/C[C@@H]([C@H](C)[C@H]2O[C@@H]2c2ccccc2)OC1=O` [CRYPTOPHYCIN 176], the negative-log IC50 (pIC50) with SK-OV-3, with LoVo and in the experiment with KB was 8.89 throughout.

For the compound `COc1ccc(C[C@H]2NC(=O)/C=C/C[C@@H]([C@H](C)[C@H]3O[C@@H]3c3ccccc3)OC(=O)[C@H](CC(C)C)OC(=O)[C@H](C)CNC2=O)cc1Cl` [CRYPTOPHYCIN A], the pIC50 in the experiment with SK-OV-3, in the experiment with LoVo and with KB was 11.04 each time.
